Assay results published in ChEMBL document CHEMBL1201862, “PubChem BioAssay data set” (2004).
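Protocol summary: plate cells (96-well), add compound at 5 concentrations, incubate 48 h, interpolate endpoints linearly. Here, GI50 denotes the concentration required for 50% inhibition of growth.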 Activity calls are given as the source filed them. Cut-off read from the data, not from the text of the source: active = GI50 up to about 1.1 µM and inactive = higher.

Assays:
Assay in all cases: inhibition of tumour cell growth, NCI panel, 48 h
786-0 = tested on: 786-0
A498 = tested on: A498
A549 = tested on: A549
ACHN = tested on: ACHN
CAKI-1 = tested on: CAKI-1
COLO 205 = tested on: COLO 205
DLD-1 = tested on: DLD-1
DMS-114 = tested on: DMS-114
DMS-273 = tested on: DMS-273
EKVX = tested on: EKVX
HCC 2998 = tested on: HCC 2998
HCT-116 = tested on: HCT-116
HCT-15 = tested on: HCT-15
HL-60 = tested on: HL-60
HOP-18 = tested on: HOP-18
HOP-62 = tested on: HOP-62
HOP-92 = tested on: HOP-92
HT-29 = tested on: HT-29
IGROV-1 = tested on: IGROV-1
K562 = tested on: K562
KM-20L2 = tested on: KM-20L2
KM12 = tested on: KM12
LOX IMVI = tested on: LOX IMVI
LXFL 529 = tested on: LXFL 529
M14 = tested on: M14
MOLT-4 = tested on: MOLT-4
Malme-3M = tested on: Malme-3M
NCI-H226 = tested on: NCI-H226
NCI-H23 = tested on: NCI-H23
NCI-H460 = tested on: NCI-H460
NCI-H522 = tested on: NCI-H522
OVCAR-3 = tested on: OVCAR-3
OVCAR-4 = tested on: OVCAR-4
OVCAR-5 = tested on: OVCAR-5
OVCAR-8 = tested on: OVCAR-8
RPMI-8226 = tested on: RPMI-8226
RXF 631 = tested on: RXF 631
SF-268 = tested on: SF-268
SF-295 = tested on: SF-295
SF-539 = tested on: SF-539
SK-MEL-28 = tested on: SK-MEL-28
SK-MEL-2 = tested on: SK-MEL-2
SK-MEL-5 = tested on: SK-MEL-5
SK-OV-3 = tested on: SK-OV-3
SN12C = tested on: SN12C
SNB-19 = tested on: SNB-19
SNB-75 = tested on: SNB-75
SNB-78 = tested on: SNB-78
SR = tested on: SR
SW-620 = tested on: SW-620
TK-10 = tested on: TK-10
U-251 = tested on: U-251
UACC-257 = tested on: UACC-257
UACC-62 = tested on: UACC-62
UO-31 = tested on: UO-31
XF498 = tested on: XF498
CCRF-CEM = tested on: CCRF-CEM
M19-MEL = tested on: M19-MEL
RXF 393 = tested on: RXF 393

Measured: GI50

CN(C)CCNC(=O)c1cccc2c(Nc3ccc(S(N)(=O)=O)cc3)c3ccccc3nc12
1.83 µM: HCT-15
inactive: A498 1.69 µM | A549 1.79 µM | ACHN 1.47 µM | CAKI-1 3.25 µM | DLD-1 1.72 µM | EKVX 3.05 µM | HCC 2998 1.71 µM | HOP-18 2.71 µM | HOP-62 3.1 µM | HOP-92 1.32 µM | HT-29 1.26 µM | IGROV-1 2.18 µM | KM-20L2 2.71 µM | KM12 1.72 µM | M14 1.67 µM | Malme-3M 1.49 µM | NCI-H23 1.73 µM | OVCAR-3 1.69 µM | OVCAR-4 1.7 µM | OVCAR-5 2.32 µM | RPMI-8226 7.08 µM | RXF 631 1.4 µM | SF-295 2.01 µM | SK-MEL-28 1.57 µM | SK-MEL-2 1.59 µM | SK-MEL-5 1.67 µM | SNB-75 1.26 µM | SNB-78 1.82 µM | TK-10 1.97 µM | UACC-257 2.96 µM | UACC-62 1.42 µM | UO-31 1.87 µM
active: 786-0 1.09 µM | COLO 205 0.391 µM | DMS-114 0.461 µM | DMS-273 0.783 µM | HCT-116 0.356 µM | HL-60 0.228 µM | K562 0.509 µM | LOX IMVI 0.531 µM | LXFL 529 0.333 µM | MOLT-4 0.0632 µM | NCI-H226 1.05 µM | NCI-H460 0.337 µM | NCI-H522 0.252 µM | OVCAR-8 0.435 µM | SF-268 0.746 µM | SF-539 0.536 µM | SK-OV-3 0.376 µM | SN12C 0.656 µM | SNB-19 1.05 µM | SR 0.0551 µM | SW-620 0.367 µM | U-251 1.02 µM | XF498 0.209 µM

OCCSCC/C(=N\N=C(/CCSCCO)c1ccccc1)c1ccccc1
> 100 µM: HCT-15
inactive: 786-0 46.2 µM | A549 > 100 µM | ACHN 74.5 µM | CAKI-1 32.1 µM | CCRF-CEM 44.9 µM | COLO 205 > 100 µM | DLD-1 > 100 µM | DMS-114 > 100 µM | EKVX > 100 µM | HCC 2998 > 100 µM | HL-60 88.5 µM | HOP-18 > 100 µM | HOP-62 > 100 µM | HOP-92 31.1 µM | HT-29 52 µM | IGROV-1 > 100 µM | K562 29.9 µM | KM-20L2 49.9 µM | KM12 66.8 µM | LOX IMVI 93.8 µM | LXFL 529 82 µM | M14 > 100 µM | M19-MEL > 100 µM | MOLT-4 77.4 µM | Malme-3M > 100 µM | NCI-H226 > 100 µM | NCI-H23 > 100 µM | NCI-H460 69.5 µM | OVCAR-3 > 100 µM | OVCAR-4 61.4 µM | OVCAR-5 > 100 µM | OVCAR-8 89.5 µM | RPMI-8226 39.4 µM | RXF 393 36.2 µM | RXF 631 65.8 µM | SF-268 > 100 µM | SF-295 34.4 µM | SF-539 > 100 µM | SK-MEL-28 > 100 µM | SK-MEL-2 84.7 µM | SK-MEL-5 88.7 µM | SK-OV-3 > 100 µM | SN12C > 100 µM | SNB-19 > 100 µM | SNB-78 > 100 µM | SW-620 > 100 µM | TK-10 > 100 µM | U-251 > 100 µM | UACC-257 > 100 µM | UACC-62 > 100 µM | UO-31 91.4 µM | XF498 69.2 µM

C/C(=N\NC(N)=S)c1ccc(C)cc1C
inactive: 786-0 > 100 µM | A498 > 100 µM | A549 53.5 µM | ACHN > 100 µM | CAKI-1 > 100 µM | CCRF-CEM > 100 µM | COLO 205 55.8 µM | DLD-1 56.8 µM | DMS-273 > 100 µM | EKVX 8.41 µM | HCC 2998 > 100 µM | HCT-116 > 100 µM | HL-60 36 µM | HOP-18 > 100 µM | HOP-62 > 100 µM | HOP-92 > 100 µM | HT-29 28.6 µM | IGROV-1 48.8 µM | K562 81.5 µM | KM-20L2 > 100 µM | KM12 60.8 µM | LOX IMVI > 100 µM | LXFL 529 39.1 µM | M14 > 100 µM | M19-MEL 36.9 µM | MOLT-4 41.8 µM | Malme-3M > 100 µM | NCI-H226 > 100 µM | NCI-H23 > 100 µM | NCI-H460 64.7 µM | OVCAR-3 75.7 µM | OVCAR-4 84.5 µM | OVCAR-5 27 µM | OVCAR-8 > 100 µM | RPMI-8226 > 100 µM | RXF 393 8.2 µM | RXF 631 91 µM | SF-295 > 100 µM | SF-539 > 100 µM | SK-MEL-2 37.2 µM | SK-MEL-5 21.7 µM | SK-OV-3 > 100 µM | SN12C > 100 µM | SNB-75 47.5 µM | SNB-78 > 100 µM | SW-620 > 100 µM | TK-10 > 100 µM | U-251 > 100 µM | UACC-257 38.4 µM | UACC-62 38.9 µM | UO-31 82.6 µM | XF498 43.1 µM
> 100 µM: HCT-15
active: SR < 0.01 µM
